Assay results reported in ChEMBL document CHEMBL6096657, “Exploring structure-directed immunogenic cytotoxicity of arginine-rich peptides for cytolysis-induced immunotherapy of cancer” (Bioorg Med Chem, 2024).
Calls of active or inactive are those of the source. The calls are words filed in the database; no cut-off is given here. Where a SMILES comes first, the peptide text is derived from it. Bridges are numbered along the chain shown (N, C = ends).

Legend:
4T1 [1] = assay: Cytotoxicity against mouse 4T1 cells assessed as cell viability by MTT assay; assay type: functional, cell-based
4T1 [2] = assay: Cytotoxicity against mouse 4T1 cells assessed as cell death rate at 4 uM measured at 15 mins by MTT assay relative to control; assay type: functional; conditions: 0.25 h
4T1 [3] = assay: Induction of immunogenic cell death in mouse 4T1 cells assessed as increase in CRT translocation to cell surface at 2 to 16 uM; assay type: functional, cell-based; conditions: dose 2-16 µM
4T1 [4] = assay: Induction of apoptosis in mouse 4T1 cells assessed as increase in caspase-3 activity measured at 30 mins; assay type: functional, cell-based
4T1 [5] = assay: Induction of immunogenic cell death in mouse 4T1 cells assessed as ATP release at 2 to 16 uM measured after 2 hrs; assay type: functional, cell-based; conditions: dose 2-16 µM
4T1 [6] = assay: Induction of necrosis in mouse 4T1 cells cocultured with mouse BMDC cells at 6 uM incubated for 4 hrs by flow cytometry analysis; assay type: functional, cell-based
4T1 [7] = assay: Induction of apoptosis in mouse 4T1 cells assessed as increase in caspase-3 activity measured at 60 mins; assay type: functional, cell-based
4T1 [8] = assay: Induction of ROS generation in mouse 4T1 cells 24 hrs by DCFDA-fluorescence based flow cytometry; assay type: functional, cell-based
4T1 [9] = assay: Induction of immunogenic cell death in mouse 4T1 cells assessed as HMGB1 release at 2 to 16 uM measured after 2 hrs; assay type: functional, cell-based; conditions: dose 2-16 µM
4T1 [10] = assay: Induction of morphological changes in mouse 4T1 cells at 4 uM by PI staining based confocal microscopic analysis; assay type: functional, cell-based
4T1 [11] = assay: Cytotoxicity against mouse 4T1 cells assessed as cell death rate at 4 uM measured at 30 mins by MTT assay relative to control; assay type: functional; conditions: 0.5 h
4T1 [12] = assay: Induction of immunogenic cell death in mouse 4T1 cells assessed as ATP release at 2 to 16 uM measured after 4 hrs; assay type: functional, cell-based; conditions: dose 2-16 µM
4T1 [13] = assay: Cytotoxicity against mouse 4T1 cells at 8 uM measured after 15 mins by MTT assay; assay type: functional, cell-based
4T1 [14] = assay: Induction of immunogenic cell death in mouse 4T1 cells assessed as ATP release at 4 to 32 uM measured after 2 hrs; assay type: functional, cell-based; conditions: dose 4-32 µM
4T1 [15] = assay: Antitumor activity against mouse 4T1 cells implanted in mouse assessed as reduction in tumor size; assay type: functional, cell-based
4T1 [16] = assay: Cytotoxicity against mouse 4T1 cells assessed as cell death rate at 8 uM measured after 1 hr by MTT assay; assay type: functional
4T1 [17] = assay: Cytotoxicity against mouse 4T1 cells assessed as cell death rate at 8 uM by PI staining based confocal microscopic analysis; assay type: functional
4T1 [18] = assay: Induction of necrosis in mouse 4T1 cells cocultured with mouse BMDC cells at 12 uM incubated for 4 hrs by flow cytometry analysis; assay type: functional, cell-based
4T1 [19] = assay: Cytotoxicity against mouse 4T1 cells; assay type: functional, cell-based
4T1 [20] = assay: Induction of necroptosis in mouse 4T1 cells assessed as increase in cell viability in presence of necrostatin-1 by MTT assay; assay type: functional, cell-based; conditions: dose 0.625-30 µM
4T1 [21] = assay: Induction of immunogenic cell death in mouse 4T1 cells assessed as ATP release at 4 to 32 uM measured after 4 hrs; assay type: functional, cell-based; conditions: dose 4-32 µM
THP-1 = assay: Induction of M1 macrophage polarization in human THP-1 cells assessed as increase in IL-1beta level measured after 48 hrs; assay type: functional, cell-based
4T1 [22] = assay: Induction of morphological changes in mouse 4T1 cells at 8 uM by PI staining based confocal microscopic analysis; assay type: functional, cell-based
[23] = Cytotoxicity against mouse BMDC cells; assay type: toxicity, cell-based; conditions: BMDC cells (bone marrow-derived dendritic cells)
4T1 [24] = assay: Induction of immunogenic cell death in mouse 4T1 cells assessed as increase in CRT translocation to cell surface at 4 to 32 uM; assay type: functional, cell-based; conditions: dose 4-32 µM
4T1 [25] = assay: Induction of apoptosis in mouse 4T1 cells assessed as increase in late necrotic cell death incubated for 24 hrs by Annexin V/FITC staining based flow cytometry analysis; assay type: functional
4T1 [26] = assay: Induction of immunogenic cell death in mouse 4T1 cells assessed as HMGB1 release at 4 to 32 uM measured after 2 hrs; assay type: functional, cell-based; conditions: dose 4-32 µM
[27] = Cytotoxicity against mouse BMDM cells; assay type: toxicity, cell-based; conditions: BMDM cells (bone marrow-derived macrophages)
4T1 [28] = assay: Induction of morphological changes in mouse 4T1 cells at 10 uM by PI staining based confocal microscopic analysis; assay type: functional, cell-based
4T1 [29] = assay: Induction of apoptosis in mouse 4T1 cells assessed as early apoptotic cell incubated for 24 hrs by Annexin V/FITC staining based flow cytometry analysis; assay type: functional
4T1 [30] = assay: Cytotoxicity against mouse 4T1 cells assessed as cell death rate at 4 uM measured after 2 hrs by MTT assay; assay type: functional
4T1 [31] = assay: Induction of immunogenic cell death in mouse 4T1 cells assessed as HMGB1 release at 4 to 32 uM measured after 4 hrs; assay type: functional, cell-based; conditions: dose 4-32 µM
4T1 [32] = assay: Cytotoxicity against mouse 4T1 cells assessed as cell death rate at 4 uM measured after 15 mins by MTT assay; assay type: functional, cell-based
4T1 [33] = assay: Induction of apoptosis in mouse 4T1 cells assessed as cell death in presence of Ac-DEVD-CHO; assay type: functional, cell-based
4T1 [34] = assay: Induction of necrosis in mouse 4T1 cells cocultured with mouse BMDC cells at 15 uM incubated for 4 hrs by flow cytometry analysis; assay type: functional, cell-based
4T1 [35] = assay: Cytotoxicity against mouse 4T1 cells assessed as cell death rate at 10 uM by PI staining based confocal microscopic analysis; assay type: functional

CC(=O)N[C@H]1CSSC[C@@H](C(=O)N[C@@H](CC(C)C)C(=O)N[C@@H](Cc2ccccc2)C(=O)N[C@@H](Cc2c[nH]c3ccccc23)C(=O)N[C@@H](Cc2ccccc2)C(N)=O)NC(=O)[C@H](CCCNC(=N)N)NC(=O)[C@H](CCCNC(=N)N)NC(=O)[C@H](CCCNC(=N)N)NC(=O)[C@H](CCCNC(=N)N)NC(=O)[C@H](CCCNC(=N)N)NC(=O)[C@H](CCCNC(=N)N)NC(=O)[C@H](CCCNC(=N)N)NC(=O)[C@H](CCCNC(=N)N)NC1=O (Ac-CRRRRRRRRCLFWF-NH2; disulfide 1-10)
IC50 (4T1 [1]): 8.5 µM

CC(=O)N[C@@H](CCCNC(=N)N)C(=O)N[C@@H](CC(C)C)C(=O)N[C@@H](CC(C)C)C(=O)N[C@@H](CCCNC(=N)N)C(=O)N[C@@H](CC(C)C)C(=O)N[C@@H](CC(C)C)C(=O)N[C@@H](CCCNC(=N)N)C(=O)N[C@@H](CCCNC(=N)N)C(=O)N[C@@H](CC(C)C)C(=O)N[C@@H](CC(C)C)C(=O)N[C@@H](CCCNC(=N)N)C(=O)N[C@@H](CC(C)C)C(=O)N[C@@H](CC(C)C)C(=O)N[C@@H](CCCNC(=N)N)C(N)=O (Ac-RLLRLLRRLLRLLR-NH2)
Activity (4T1 [2]): 30% | Activity (4T1 [3]): Active | Activity (4T1 [4]): inactive | Activity (4T1 [5]): Active | Activity (4T1 [6]): Active | Activity (4T1 [7]): inactive | IC50 (4T1 [1]): 3.3 µM | Activity (4T1 [8]): inactive | Activity (4T1 [9]): Active | Activity (4T1 [10]): inactive | Activity (4T1 [11]): 50% | Activity (4T1 [12]): Active

N=C(N)NCCC[C@@H]1NC(=O)[C@H](CCCNC(=N)N)NC(=O)[C@H](CCCNC(=N)N)NC(=O)[C@H](CCCNC(=N)N)NC(=O)[C@H](CCCNC(=N)N)NC(=O)[C@H](CCCNC(=N)N)NC(=O)[C@H](CCCNC(=N)N)NC(=O)[C@H](CCCNC(=N)N)NC(=O)[C@@H](NC(=O)[C@H](Cc2ccccc2)NC(=O)[C@H](Cc2ccccc2)NC(=O)[C@H](Cc2ccccc2)NC(=O)[C@@H](N)Cc2ccccc2)CSSC[C@@H](C(=O)O)NC1=O (H-FFFFCRRRRRRRRC-OH; disulfide 5-14)
IC50 (4T1 [1]): 8.8 µM

CC(=O)N[C@@H](Cc1ccccc1)C(=O)N[C@@H](Cc1c[nH]c2ccccc12)C(=O)N[C@@H](Cc1ccccc1)C(=O)N[C@@H](CC(C)C)C(=O)N[C@H]1CSSC[C@@H](C(N)=O)NC(=O)[C@H](CCCNC(=N)N)NC(=O)[C@H](CCCNC(=N)N)NC(=O)[C@H](CCCNC(=N)N)NC(=O)[C@H](CCCNC(=N)N)NC(=O)[C@H](CCCNC(=N)N)NC(=O)[C@H](CCCNC(=N)N)NC(=O)[C@H](CCCNC(=N)N)NC(=O)[C@H](CCCNC(=N)N)NC1=O (Ac-FWFLCRRRRRRRRC-NH2; disulfide 5-14)
Activity (4T1 [13]): Active | Activity (4T1 [4]): inactive | Activity (4T1 [14]): Active | Activity (4T1 [15]): Active | Activity (4T1 [7]): inactive | Activity (4T1 [16]): 50% | Activity (4T1 [17]): Active | IC50 (4T1 [1]): 7.5 µM | Activity (4T1 [18]): Active | Activity (4T1 [8]): Active | IC50 (4T1 [19]): 7.5 µM | Activity (4T1 [20]): Dose-dependent-effect | Activity (4T1 [21]): Active | Activity (THP-1): Active | Activity (4T1 [22]): Active | IC50 [23]: 7.8 µM | Activity (4T1 [24]): Active | Activity (4T1 [25]): Active | Activity (4T1 [26]): Active | IC50 [27]: 10.3 µM

CC(=O)N[C@@H](CC(C)C)C(=O)N[C@@H](CC(C)C)C(=O)N[C@@H](CC(C)C)C(=O)N[C@@H](CC(C)C)C(=O)N[C@H]1CSSC[C@@H](C(N)=O)NC(=O)[C@H](CCCNC(=N)N)NC(=O)[C@H](CCCNC(=N)N)NC(=O)[C@H](CCCNC(=N)N)NC(=O)[C@H](CCCNC(=N)N)NC(=O)[C@H](CCCNC(=N)N)NC(=O)[C@H](CCCNC(=N)N)NC(=O)[C@H](CCCNC(=N)N)NC(=O)[C@H](CCCNC(=N)N)NC1=O (Ac-LLLLCRRRRRRRRC-NH2; disulfide 5-14)
IC50 (4T1 [1]): 9.3 µM

CC(=O)N[C@@H](CCCNC(=N)N)C(=O)N[C@@H](CC(C)C)C(=O)N[C@@H](CC(C)C)C(=O)N[C@@H](CCCNC(=N)N)C(=O)N[C@@H](CC(C)C)C(=O)N[C@@H](CC(C)C)C(=O)N[C@@H](CCCNC(=N)N)C(=O)N[C@@H](CC(C)C)C(=O)N[C@@H](CCCNC(=N)N)C(=O)N[C@@H](CCCNC(=N)N)C(=O)N[C@@H](CC(C)C)C(=O)N[C@@H](CC(C)C)C(=O)N[C@@H](CCCNC(=N)N)C(=O)N[C@@H](CC(C)C)C(N)=O (Ac-RLLRLLRLRRLLRL-NH2)
Activity (4T1 [28]): inactive | Activity (4T1 [4]): Active | Activity (4T1 [14]): Active | Activity (4T1 [29]): Active | Activity (4T1 [7]): Active | Activity (4T1 [30]): 50% | IC50 (4T1 [1]): 9.3 µM | Activity (4T1 [8]): Active | Activity (4T1 [31]): Active | Activity (4T1 [32]): Active | Activity (4T1 [21]): Active | Activity (4T1 [33]): Active | Activity (4T1 [26]): Active | Activity (4T1 [34]): Active | Activity (4T1 [35]): Active
